Reference: patent publication US10030020B2, “Spirocycle compounds and methods of making and using same” (Abide Therapeutics, Inc., priority 2016, dated 2018)

Key:
MAGL [1] = biological target: T1, MAGL (Mus musculus (Mouse), UniProt O35678); experiment: In vitro competitive activity-based protein profiling (mouse brain membrane fraction or cell lysates), MAGL band; assay type: biochemical; details: 1 μM, mouse; read-out: MAGL % Inh 1 μM (mouse)
Description: In Vitro Competitive Activity-Based Protein Profiling.
Proteomes (mouse brain membrane fraction or cell lysates) (50 μL, 1.0 mg/mL total protein concentration) were preincubated with varying concentrations of inhibitors at 37° C. After 30 min, FP—Rh (1.0 μL, 50 μM in DMSO) was added and the mixture was incubated for another 30 min at 37° C. Reactions were quenched with SDS loading buffer (50 μL-4×) and run on SDS-PAGE.

ABHD6 [2] = biological target: T2, ABHD6 (Mus musculus (Mouse), UniProt Q8R2Y0); experiment: In vitro competitive activity-based protein profiling (mouse brain membrane fraction or cell lysates), ABHD6 band; assay type: biochemical; details: 1 μM, mouse; read-out: ABHD6 % Inh 1 μM (mouse)
Method in brief: (§1)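 Mouse proteome samples (brain membrane fraction or cell lysate, 1.0 mg/mL protein) were pretreated with varying inhibitor concentrations and subsequently probed with fluorophosphonate-rhodamine, each step lasting 30 min at 37° C. Labelled proteins were separated by SDS-PAGE, and band fluorescence was imaged and quantified.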

FAAH [3] = biological target: T3, FAAH (Mus musculus (Mouse), UniProt O08914); experiment: In vitro competitive activity-based protein profiling (mouse brain membrane fraction or cell lysates), FAAH band; assay type: biochemical; details: 1 μM, mouse; read-out: FAAH % Inh 1 μM (mouse)
Method in brief: as §1

MAGL [4] = biological target: MAGL (Homo sapiens (Human), UniProt Q99685); experiment: In vitro competitive activity-based protein profiling (human prefrontal cortex or cell membrane fractions; hMAGL expressed in HEK293T cells); assay type: biochemical; details: human
Method in brief: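 Human prefrontal cortex or cell membrane proteomes (1.0-2.0 mg/mL), or lysates of HEK293T cells expressing hMAGL diluted into mock proteome, preincubated with inhibitor 30 min at 37° C. FP-Rh or JW912 probe then added for 30 min at room temperature. Residual labeling resolved by SDS-PAGE.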

MAGL [5] = biological target: T1, MAGL; experiment: Mouse brain proteomes from inhibitor treated mice (oral gavage, sacrificed 4 h after administration, ABPP analysis); assay type: in vivo, mouse (C57Bl/6J); details: 5 mg/kg oral gavage
Method in brief: (§2)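 Values give % inhibition in brain after a 5 mg/kg oral gavage dose to wild-type C57Bl/6J mice, with vehicle e.g. PEG400/Ethanol/PBS (7/2/1). Animals were killed 4 h post-dose and brain proteome activity was read by ABPP.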

FAAH [6] = biological target: T3, FAAH; experiment: Mouse brain proteomes from inhibitor treated mice (oral gavage, sacrificed 4 h after administration, ABPP analysis), FAAH; assay type: in vivo, mouse (C57Bl/6J); details: 5 mg/kg oral gavage
Method in brief: as §2

ABHD6 [7] = biological target: T2, ABHD6; experiment: Mouse brain proteomes from inhibitor treated mice (oral gavage, sacrificed 4 h after administration, ABPP analysis), ABHD6; assay type: in vivo, mouse (C57Bl/6J); details: 5 mg/kg oral gavage
Method in brief: as §2

T3 sequence (O08914 whole entry): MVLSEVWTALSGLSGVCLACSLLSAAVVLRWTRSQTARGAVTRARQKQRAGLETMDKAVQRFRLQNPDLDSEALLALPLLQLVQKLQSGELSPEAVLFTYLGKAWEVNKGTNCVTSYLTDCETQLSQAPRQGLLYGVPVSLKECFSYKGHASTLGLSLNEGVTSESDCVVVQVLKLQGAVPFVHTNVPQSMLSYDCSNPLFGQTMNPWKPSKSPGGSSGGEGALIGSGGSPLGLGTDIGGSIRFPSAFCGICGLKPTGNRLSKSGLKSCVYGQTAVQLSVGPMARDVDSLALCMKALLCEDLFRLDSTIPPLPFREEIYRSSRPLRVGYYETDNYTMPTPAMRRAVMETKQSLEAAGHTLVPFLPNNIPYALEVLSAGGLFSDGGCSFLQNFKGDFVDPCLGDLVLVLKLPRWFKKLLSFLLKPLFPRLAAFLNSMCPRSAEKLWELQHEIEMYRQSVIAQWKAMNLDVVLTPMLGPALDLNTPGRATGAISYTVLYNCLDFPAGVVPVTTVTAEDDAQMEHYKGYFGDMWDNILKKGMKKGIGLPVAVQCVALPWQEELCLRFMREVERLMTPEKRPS
T2 sequence (Q8R2Y0 whole entry): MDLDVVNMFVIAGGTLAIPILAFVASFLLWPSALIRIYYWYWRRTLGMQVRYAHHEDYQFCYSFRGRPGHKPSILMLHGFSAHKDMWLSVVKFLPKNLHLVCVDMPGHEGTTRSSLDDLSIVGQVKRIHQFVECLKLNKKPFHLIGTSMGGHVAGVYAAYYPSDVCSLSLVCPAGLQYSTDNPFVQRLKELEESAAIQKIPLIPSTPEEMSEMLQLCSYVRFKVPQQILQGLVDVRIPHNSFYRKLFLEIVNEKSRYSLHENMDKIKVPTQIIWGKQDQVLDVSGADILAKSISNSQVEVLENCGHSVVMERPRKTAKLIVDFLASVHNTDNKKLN
Sequence of MAGL (Homo sapiens (Human), UniProt Q99685) (Q99685 whole entry): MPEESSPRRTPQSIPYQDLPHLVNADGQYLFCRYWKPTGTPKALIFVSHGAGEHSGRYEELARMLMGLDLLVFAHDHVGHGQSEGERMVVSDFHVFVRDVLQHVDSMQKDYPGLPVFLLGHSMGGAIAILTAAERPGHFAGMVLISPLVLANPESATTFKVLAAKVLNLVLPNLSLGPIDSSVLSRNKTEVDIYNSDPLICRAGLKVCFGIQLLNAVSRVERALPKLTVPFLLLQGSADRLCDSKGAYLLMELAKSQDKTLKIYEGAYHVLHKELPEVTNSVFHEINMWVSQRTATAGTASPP
T1 sequence (O35678 whole entry): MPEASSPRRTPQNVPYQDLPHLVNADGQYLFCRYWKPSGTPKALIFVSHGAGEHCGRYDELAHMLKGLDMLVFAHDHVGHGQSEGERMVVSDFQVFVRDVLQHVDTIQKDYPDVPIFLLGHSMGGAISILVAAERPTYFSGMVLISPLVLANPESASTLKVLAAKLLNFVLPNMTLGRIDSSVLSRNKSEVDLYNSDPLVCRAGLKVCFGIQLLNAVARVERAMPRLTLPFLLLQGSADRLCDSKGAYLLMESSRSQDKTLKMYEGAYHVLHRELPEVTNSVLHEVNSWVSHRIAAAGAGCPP

O=C(O)C1CCN(c2cc(OC(F)(F)F)ccc2CN2CCCC23CCN(C(=O)OC(C(F)(F)F)C(F)(F)F)CC3)CC1 [Example 248]
inhibition at 1 µM (MAGL [1]): > 75% | inhibition at 1 µM (ABHD6 [2]): < 25% | inhibition at 1 µM (FAAH [3]): < 25% | IC50 (MAGL [4]): < 0.1 µM | MAGL % Inh 5 mg/kg (mouse) (MAGL [5]): ### (### is ≥75%) | FAAH % Inh 5 mg/kg (mouse) (FAAH [6]): # (# is <25%) | ABHD6 % Inh 5 mg/kg (mouse) (ABHD6 [7]): # (# is <25%)

N#Cc1ccc(CN2CCCC23CCN(C(=O)OC(C(F)(F)F)C(F)(F)F)CC3)c(N2CCC(C(=O)O)CC2)c1 [Example 249]
inhibition at 1 µM (MAGL [1]): > 75% | inhibition at 1 µM (ABHD6 [2]): < 25% | inhibition at 1 µM (FAAH [3]): < 25% | IC50 (MAGL [4]): < 0.1 µM | MAGL % Inh 5 mg/kg (mouse) (MAGL [5]): ## (## is equal to or greater than 25% but less than 75%) | FAAH % Inh 5 mg/kg (mouse) (FAAH [6]): # (# is <25%) | ABHD6 % Inh 5 mg/kg (mouse) (ABHD6 [7]): # (# is <25%)

O=C(O)C1CCN(Cc2cc(CN3CCCC34CCN(C(=O)OC(C(F)(F)F)C(F)(F)F)CC4)cc(C(F)(F)F)c2)C1 (stereo not drawn) [Example 253]
inhibition at 1 µM (MAGL [1]): > 75% | inhibition at 1 µM (ABHD6 [2]): < 25% | inhibition at 1 µM (FAAH [3]): < 25% | IC50 (MAGL [4]): < 0.1 µM | MAGL % Inh 5 mg/kg (mouse) (MAGL [5]): ## (## is equal to or greater than 25% but less than 75%) | FAAH % Inh 5 mg/kg (mouse) (FAAH [6]): # (# is <25%) | ABHD6 % Inh 5 mg/kg (mouse) (ABHD6 [7]): # (# is <25%)

CC1(C(=O)O)CN(c2cc(C(F)(F)F)ccc2CN2CCC3(CCN(C(=O)OC(C(F)(F)F)C(F)(F)F)CC3)C2)CCO1 (stereo not drawn) [Example 256]
inhibition at 1 µM (MAGL [1]): > 75% | inhibition at 1 µM (ABHD6 [2]): < 25% | inhibition at 1 µM (FAAH [3]): < 25% | IC50 (MAGL [4]): < 0.1 µM | MAGL % Inh 5 mg/kg (mouse) (MAGL [5]): # (# is <25%) | FAAH % Inh 5 mg/kg (mouse) (FAAH [6]): # (# is <25%) | ABHD6 % Inh 5 mg/kg (mouse) (ABHD6 [7]): # (# is <25%)

O=C(O)C1CCN(Cc2cc(C(F)(F)F)ccc2CN2CCCC23CCN(C(=O)OC(C(F)(F)F)C(F)(F)F)CC3)C1 (stereo not drawn) [Example 262]
inhibition at 1 µM (MAGL [1]): > 75% | inhibition at 1 µM (ABHD6 [2]): < 25% | inhibition at 1 µM (FAAH [3]): < 25% | IC50 (MAGL [4]): < 0.1 µM | MAGL % Inh 5 mg/kg (mouse) (MAGL [5]): ## (## is equal to or greater than 25% but less than 75%) | FAAH % Inh 5 mg/kg (mouse) (FAAH [6]): # (# is <25%) | ABHD6 % Inh 5 mg/kg (mouse) (ABHD6 [7]): # (# is <25%)

CS(=O)(=O)C1CCN(c2cc(C(F)(F)F)ccc2CN2CCCC23CCN(C(=O)OC(C(F)(F)F)C(F)(F)F)CC3)CC1 [Example 267]
inhibition at 1 µM (MAGL [1]): > 75% | inhibition at 1 µM (ABHD6 [2]): ≥ 75% | inhibition at 1 µM (FAAH [3]): < 25% | IC50 (MAGL [4]): < 0.1 µM | MAGL % Inh 5 mg/kg (mouse) (MAGL [5]): # (# is <25%) | FAAH % Inh 5 mg/kg (mouse) (FAAH [6]): # (# is <25%) | ABHD6 % Inh 5 mg/kg (mouse) (ABHD6 [7]): # (# is <25%)

CS(=O)(=O)C1CN(c2cc(C(F)(F)F)ccc2CN2CCCC23CCN(C(=O)OC(C(F)(F)F)C(F)(F)F)CC3)C1 [Example 268]
inhibition at 1 µM (MAGL [1]): > 75% | inhibition at 1 µM (ABHD6 [2]): 25 to 75% | inhibition at 1 µM (FAAH [3]): < 25% | IC50 (MAGL [4]): < 0.1 µM | MAGL % Inh 5 mg/kg (mouse) (MAGL [5]): ## (## is equal to or greater than 25% but less than 75%) | FAAH % Inh 5 mg/kg (mouse) (FAAH [6]): # (# is <25%) | ABHD6 % Inh 5 mg/kg (mouse) (ABHD6 [7]): ## (## is equal to or greater than 25% but less than 75%)

O=C(O)C1CCN(Cc2cc(CN3CCCC34CCN(C(=O)OC(C(F)(F)F)C(F)(F)F)CC4)cc(OC(F)(F)F)c2)CC1 [Example 269]
inhibition at 1 µM (MAGL [1]): > 75% | inhibition at 1 µM (ABHD6 [2]): < 25% | inhibition at 1 µM (FAAH [3]): < 25% | IC50 (MAGL [4]): < 0.1 µM | MAGL % Inh 5 mg/kg (mouse) (MAGL [5]): ## (## is equal to or greater than 25% but less than 75%) | FAAH % Inh 5 mg/kg (mouse) (FAAH [6]): # (# is <25%) | ABHD6 % Inh 5 mg/kg (mouse) (ABHD6 [7]): # (# is <25%)

O=C(O)C1CCN(Cc2cc(CN3CCCC34CCN(C(=O)OC(C(F)(F)F)C(F)(F)F)CC4)cc(OC(F)(F)F)c2)C1 (stereo not drawn) [Example 270]
inhibition at 1 µM (MAGL [1]): > 75% | inhibition at 1 µM (ABHD6 [2]): < 25% | inhibition at 1 µM (FAAH [3]): < 25% | IC50 (MAGL [4]): < 0.1 µM | MAGL % Inh 5 mg/kg (mouse) (MAGL [5]): ## (## is equal to or greater than 25% but less than 75%) | FAAH % Inh 5 mg/kg (mouse) (FAAH [6]): # (# is <25%) | ABHD6 % Inh 5 mg/kg (mouse) (ABHD6 [7]): # (# is <25%)
